How the values were obtained:
HeLa = assay: Cytotoxicity against human HeLa cells expressing hACE2 assessed as cell viability treated for 72 hrs by Cell Titer Glo assay; assay type: functional
SARS-CoV-2 [1] = assay: Antiviral activity against SARS-CoV-2 infected in human HeLa cells expressing hACE2 assessed as inhibition of viral replication at MOI of 0.3 treated for 46 hrs by fluorescence microscopy; assay type: functional, organism-based; conditions: Severe acute respiratory syndrome coronavirus 2, HeLa
[2] = biological target: Replicase polyprotein 1ab (Severe acute respiratory syndrome coronavirus 2) (UniProt P0DTD1); assay: Inhibition of SARS-CoV-2 papain-like protease nsp3 (745 to 1061 residues) expressed in Escherichia coli
[3] = Cytotoxicity against African green monkey Vero E6 cells assessed as cell viability treated for 24 to 48 hrs by prestoblue staining based assay; assay type: toxicity, Vero C1008; conditions: chlorocebus sabaeus, time 24-48 hrs
[4] = Stability in human liver microsome assessed as half life; assay type: ADME; conditions: liver microsomes
[5] = Stability in human liver S9 fraction assessed as half life; assay type: ADME, subcellular
SARS-CoV-2 [6] = assay: Antiviral activity against SARS-CoV-2 infected in African green monkey Vero cells assessed as viral growth inhibition by cell culture based assay; assay type: functional, organism-based; conditions: Severe acute respiratory syndrome coronavirus 2, Vero
[7] = Antiviral activity against HCoV-OC43 assessed as viral growth inhibition; assay type: functional, Human coronavirus OC43
SARS-CoV-2 [8] = assay: Antiviral activity against SARS-CoV-2 infected in human A549 cells expressing ACE2 assessed as viral growth inhibition; assay type: functional, organism-based; conditions: Severe acute respiratory syndrome coronavirus 2, A549
[9] = Selectivity index, ratio of CC50 for human A549 cells expressing ACE2 to EC50 for SARS-CoV-2 infected in human A549 cells expressing ACE2; assay type: toxicity, cell-based; conditions: read-out: Ratio CC50/EC50
SARS-CoV-2 [10] = assay: Antiviral activity against SARS-CoV-2 infected in African green monkey Vero cells assessed as viral growth inhibition; assay type: functional, organism-based; conditions: Severe acute respiratory syndrome coronavirus 2, Vero
[11] = Cytotoxicity against African green monkey Vero cells assessed as cell viability; assay type: toxicity, cell-based; conditions: chlorocebus sabaeus
A549 = assay: Cytotoxicity against human A549 cells expressing ACE2 assessed as cell viability; assay type: functional
[12] = tested on: Middle East respiratory syndrome-related coronavirus; assay: Antiviral activity against MERS-CoV assessed as viral growth inhibition; assay type: functional, organism-based
[13] = Selectivity index, ratio of CC50 for African green monkey Vero cells to EC50 for SARS-CoV-2 infected in African green monkey Vero cells; assay type: toxicity; conditions: read-out: Ratio CC50/EC50
SARS-CoV-2 [14] = assay: Antiviral activity against SARS-CoV-2 infected in African green monkey Vero cells assessed as viral growth inhibition incubated for 1 hr by crystal violet staining based plaque reduction assay; assay type: functional, organism-based; conditions: Severe acute respiratory syndrome coronavirus 2, Vero
[15] = Cytotoxicity against African green monkey Vero E6 cells assessed as cell viability; assay type: toxicity, cell-based, Vero C1008; conditions: chlorocebus sabaeus
[16] = Cytotoxicity against African green monkey Vero E6 cells assessed as cell viability treated for 24 hrs by CCK8 assay; assay type: toxicity, cell-based, Vero C1008; conditions: chlorocebus sabaeus
SARS-CoV-2 [17] = assay: Antiviral activity against SARS-CoV-2 USA-WA1/2020 infected in African green monkey Vero E6 cells assessed as viral growth inhibition pretreated for 1 hr followed by infection at MOI of 0.1 measured after 48 hrs by Cell Titer Glo assay; assay type: functional, organism-based; conditions: Severe acute respiratory syndrome coronavirus 2, USA-WA1/2020, Vero C1008
SARS-CoV-2 [18] = assay: Antiviral activity against SARS-CoV-2 USA-WA1/2020 isolate infected in human Caco2 expressing hACE2 cells assessed as viral growth inhibition at MOI of 0.1 treated for 24 hrs by fluorescence microscopy; assay type: functional, organism-based; conditions: Severe acute respiratory syndrome coronavirus 2, USA-WA1/2020 isolate, Caco-2, 24 h
SARS-CoV-2 [19] = assay: Antiviral activity against SARS-CoV-2 infected in African green monkey Vero cells assessed as viral growth inhibition measured after 72 hrs by LDH assay; assay type: functional, organism-based; conditions: Severe acute respiratory syndrome coronavirus 2, Vero

C[C@H](c1cccc2ccccc12)N1CCC(C(=O)NCc2cc(F)cc(NC(=O)N3CCN(C)CC3)c2)CC1
CC50 (HeLa): > 10 µM
EC50 (SARS-CoV-2 [1]): 0.18 µM

COC(=O)/C=C/CNC(=O)CNC(=O)[C@H](CN)NC(=O)[C@H](CCc1ccc(O)cc1)NC(C)=O
INH [2]: 100 µM

O=C1c2c(O)cccc2[C@H]([C@@H]2O[C@H](CO)[C@@H](O)[C@H](O)[C@H]2O)c2cc(CO)cc(O)c21
CC50 [3]: > 100 µM

COC(=O)/C=C/C(=O)NNC(=O)CCc1ccccc1C(=O)N[C@H](C)c1cccc2ccccc12
half-life [4]: 50 min
half-life [5]: 60 min

O=C1c2c(O)cccc2[C@@H]([C@@H]2O[C@H](CO)[C@@H](O)[C@H](O)[C@H]2O)c2cc(CO)cc(O)c21
CC50 [3]: > 100 µM

Cc1cc2nc3c(=O)[nH]c(=O)nc-3n(C)c2cc1C=O
EC50 (SARS-CoV-2 [6]): 20 µM

Nc1ccc2cc3ccc(N)cc3nc2c1 [PROFLAVINE]
IC50 [7]: 0.105 µM
EC50 (SARS-CoV-2 [8]): 0.086 µM
selectivity ratio [9]: 36
EC50 (SARS-CoV-2 [10]): 0.064 µM
CC50 [11]: 3.4 µM
CC50 (A549): 3.1 µM
IC50 [12]: 0.021 µM
selectivity ratio [13]: 53

Cc1ccc(N)cc1C(=O)N[C@H](C)c1cccc2ccccc12
EC50 (SARS-CoV-2 [14]): 3.18 µM
EC50 (SARS-CoV-2 [6]): 32.6 µM

Nc1nc2nc[nH]c2c(=S)[nH]1 [THIOGUANINE]
CC50 [15]: 35.5 µM

COC(=O)/C=C/CNC(=O)CNC(=O)[C@H](CN)NC(=O)[C@H](CCc1nc2ccccc2s1)NC(C)=O
INH [2]: 100 µM

Cc1coc2c1C(=O)C(=O)c1c-2ccc2c1CCCC2(C)C [TANSHINONE IIA]
EC50 (SARS-CoV-2 [6]): > 200 µM

C[C@H]1COC2=C1C(=O)C(=O)c1c2ccc2c1CCCC2(C)C [CRYPTOTANSHINONE]
CC50 at 24 h [16]: > 300 µM
EC50 (SARS-CoV-2 [6]): > 200 µM

Cc1coc2c1C(=O)C(=O)c1c-2ccc2c(C)cccc12 [TANSHINONE I]
CC50 at 24 h [16]: > 200 µM

C[C@@H](NC(=O)c1ccccc1CCC(=O)NNC(=O)CCl)c1cccc2ccccc12
EC50 (SARS-CoV-2 [17]): 34 µM

Cc1cccc2c3c(ccc12)C1=C(C(=O)C3=O)[C@@H](C)CO1 [DIHYDROTANSHINONE I]
EC50 (SARS-CoV-2 [6]): 8.15 µM

C[C@H](c1cccc2ccccc12)N(C)Cc1c[nH]c2ccccc12
EC50 (SARS-CoV-2 [18]): 12 µM

COc1cc(CNC(=O)C2CCN(C(C)c3cccc4ccccc34)CC2)ccn1 (stereo not drawn)
EC50 (SARS-CoV-2 [19]): < 11 µM

Source: ChEMBL document CHEMBL5137028, “Progress and Challenges in Targeting the SARS-CoV-2 Papain-like Protease” (J Med Chem, 2022)
